Measurements: patent publication US20230002361A1, “2H-INDAZOLE DERIVATIVES AND THEIR USE IN THE TREATMENT OF DISEASE” (BIOGEN MA INC., priority 2019, published 2023)
Read-outs that look alike come from different tables or passages of the source.

Tests used:
IRAK4 = target: T1, IRAK4 (Homo sapiens, UniProt Q9NWZ3); test: IRAK4 MSD Biochemical Assay (1 mM ATP, 2 h); conditions: room temperature
T1 construct: with 0.1 nM IRAK4, 1.6 μM of biotinylated peptide substrate and 10 μM ATP
T1 sequence (Q9NWZ3 1-460): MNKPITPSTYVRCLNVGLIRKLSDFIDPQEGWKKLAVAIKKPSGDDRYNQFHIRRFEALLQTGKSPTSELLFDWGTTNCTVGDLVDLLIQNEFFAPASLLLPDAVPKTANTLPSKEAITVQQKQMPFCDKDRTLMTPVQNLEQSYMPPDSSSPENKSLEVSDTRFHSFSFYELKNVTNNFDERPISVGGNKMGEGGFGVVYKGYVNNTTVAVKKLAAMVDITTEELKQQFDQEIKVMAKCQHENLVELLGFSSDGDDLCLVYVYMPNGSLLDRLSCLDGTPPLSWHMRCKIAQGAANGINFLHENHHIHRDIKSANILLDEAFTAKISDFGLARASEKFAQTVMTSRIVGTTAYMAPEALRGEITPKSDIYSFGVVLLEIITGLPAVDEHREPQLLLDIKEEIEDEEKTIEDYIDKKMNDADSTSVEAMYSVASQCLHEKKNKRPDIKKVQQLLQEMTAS
Method: The 2-hour 10 μM ATP Biochemical Assay employs a MesoScale Detection (MSD) format.
The activity is quenched with 11 μl of 70 mM EDTA, pH 8.
To detect the phosphorylated biotinylated peptide substrate, 30 μl of the quenched reaction mixture is added to equivalent wells of a 384 well streptavidin coated MesoScale plate (Meso Scale Discovery #L21SA-1). After a 1 hour incubation of the plate for 1 hour at room temperature with gentle mixing, the plate wells are washed 3 times with 50 mM Tris, pH 7.5, 150 mM NaCl, 0.02% Tween-20.
A 25 μl volume of 1:500 anti-P-Threonine Rabbit polyclonal Antibody plus 1:500 Goat-anti-Rabbit Sulfo Tag Antibody (Meso Scale Discovery R32AB-1) in 50 mM Tris, pH 7.5, 150 mM NaCl, 0.02% Tween-20 plus 2% BSA is then added to each well. After a 1-hour incubation of the plate for 1 hour at room temperature with gentle mixing, the plate wells are washed, 3 times with 50 mM Tris, pH 7.5, 150 mM NaCl, 0.02% Tween-20. A 40 μl volume of 2×MSD Read Buffer (Meso Scale Discovery R92TC-1) is added to each well, and the plate is read immediately in an MSD Plate Reader (Meso Scale Discovery).
The 2-hour 1 mM ATP IRAK4 Biochemical assay was performed as described above, but with […] IRAK4 and 1 mM ATP.

MDR1 (P-gp) = target: T2, MDR1 (P-gp) (Homo sapiens, UniProt P08183); test: MDR1-MDCK assay (efflux ratio); assay type: in vitro ADME; conditions: human, MDCK-MDR1, 1 μM compound, 120 minutes incubation; read-out: MDR1-MDCK Efflux Ratio; (B-A/A-B)
T2 construct: host or cells: MDCK cells
Method: • The assay makes use of human MDR1 transfected MDCK cells (NIH cell line in-licensed from Absorption Systems) • The compounds are tested at 1 μM concentration prepared in transport buffer (Hank's balanced salt solution with HEPES) • MDR1-MDCK cell are cultured for 7 days in 96 well transwell insert plates (Corning). Insert plates are washed before the assay and TEER (Trans epithelial electric resistance) is measured. • These plates are loaded with test compound solution 85 μL for A-B transport and 260 μL for B-A transport in the respective donor compartment.
Mass balance=100×((Vr×Cr^final)+(Vd×Cd^final))/(Vd×CE) • Where: • dCr/dt is the cumulative concentration in the receiver compartment versus time in μM s^−1 • Vr is the volume of the receiver compartment in cm^3 • Vd is the volume of the donor compartment in cm^3 • A is the area of the insert (0.143 cm^2 for 96-well insert) • CE is the estimated experimental concentration (Time=0) of the dosing solution • Cr^final is the concentration of the receiver at the end of the incubation period • Cd^final is the concentration of the donor at the end of the incubation period.

[1] = read-out: IRAK4 MSD Biochemical Assay (1 mM ATP, 2 h) IC50
[2] = IRAK4 MSD Biochemical Assay (1 mM ATP, 2 h) IC50 (nM)

T2 sequence (P08183 whole entry): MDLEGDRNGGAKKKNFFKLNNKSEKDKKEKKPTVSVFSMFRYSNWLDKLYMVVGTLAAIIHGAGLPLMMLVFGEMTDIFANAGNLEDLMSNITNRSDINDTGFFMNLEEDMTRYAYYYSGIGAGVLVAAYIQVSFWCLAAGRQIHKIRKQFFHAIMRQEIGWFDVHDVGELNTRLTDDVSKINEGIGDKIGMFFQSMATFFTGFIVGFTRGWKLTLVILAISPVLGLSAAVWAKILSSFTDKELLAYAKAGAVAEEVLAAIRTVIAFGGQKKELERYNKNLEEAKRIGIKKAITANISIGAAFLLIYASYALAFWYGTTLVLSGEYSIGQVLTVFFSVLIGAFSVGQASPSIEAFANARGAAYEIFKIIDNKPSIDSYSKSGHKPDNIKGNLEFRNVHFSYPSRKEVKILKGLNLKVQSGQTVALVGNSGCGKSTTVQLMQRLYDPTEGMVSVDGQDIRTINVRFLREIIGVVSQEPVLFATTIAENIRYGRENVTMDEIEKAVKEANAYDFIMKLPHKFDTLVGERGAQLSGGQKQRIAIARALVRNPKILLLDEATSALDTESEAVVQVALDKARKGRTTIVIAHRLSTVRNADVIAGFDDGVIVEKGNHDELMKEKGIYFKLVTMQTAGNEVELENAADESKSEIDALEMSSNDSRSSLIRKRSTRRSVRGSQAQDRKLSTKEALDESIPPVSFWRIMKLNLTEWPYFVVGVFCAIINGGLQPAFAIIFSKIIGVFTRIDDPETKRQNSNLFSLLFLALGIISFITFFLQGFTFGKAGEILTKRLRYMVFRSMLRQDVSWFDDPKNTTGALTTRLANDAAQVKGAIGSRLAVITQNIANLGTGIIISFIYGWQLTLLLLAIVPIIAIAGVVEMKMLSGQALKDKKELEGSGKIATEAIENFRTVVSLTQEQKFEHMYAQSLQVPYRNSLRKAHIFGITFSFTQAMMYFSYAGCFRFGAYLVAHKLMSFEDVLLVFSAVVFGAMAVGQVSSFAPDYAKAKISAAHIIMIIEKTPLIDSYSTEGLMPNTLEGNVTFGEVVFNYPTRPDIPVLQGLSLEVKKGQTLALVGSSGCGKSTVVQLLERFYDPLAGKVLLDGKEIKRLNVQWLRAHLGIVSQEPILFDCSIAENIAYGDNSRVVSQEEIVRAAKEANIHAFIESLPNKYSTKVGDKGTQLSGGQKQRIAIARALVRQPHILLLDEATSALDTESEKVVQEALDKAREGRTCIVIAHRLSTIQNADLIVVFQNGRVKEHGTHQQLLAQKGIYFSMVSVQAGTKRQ

Row | IC50 (IRAK4; [1]) | efflux ratio at 120 min, 1 μM (MDR1 (P-gp)) | SMILES | IC50 (IRAK4; [2])
1 | 7.1 nM | 0.9 | COc1cc2nn(C[C@H]3CCOC3)cc2cc1C(=O)Nc1cccc(C(F)F)n1 (single isomer, unassigned) [Example 18] | 
2 | 5.4 nM | 1 | COc1cc2nn(C[C@@H]3CCOC3)cc2cc1C(=O)Nc1cccc(C(F)F)n1 (single isomer, unassigned) [Example 19] | 
3 | 0.5 nM | 0.7 | CC(C)Oc1cc2nn(C[C@H]3CCOC3)cc2cc1C(=O)Nc1cccc(C(F)F)n1 (single isomer, unassigned) [Example 20] | 
4 | 0.5 nM | 0.7 | CC(C)Oc1cc2nn(C[C@@H]3CCOC3)cc2cc1C(=O)Nc1cccc(C(F)F)n1 (single isomer, unassigned) [Example 21] | 
5 | 1 nM | 1 | CC(C)Oc1nc2nn(C[C@@H]3CCOC3)cc2cc1C(=O)Nc1cccc2ccnn12 (single isomer, unassigned) [Example 52] | 
6 | 1.5 nM | 1 | CC(C)Oc1nc2nn(C[C@H]3CCOC3)cc2cc1C(=O)Nc1cccc2ccnn12 (single isomer, unassigned) [Example 53] | 
7 | 0.9 nM | 4.8 | Cc1cnc2c(NC(=O)c3cc4cn(C[C@H]5CCOC5)nc4nc3OC(C)C)cnn2c1 (single isomer, unassigned) [Example 104] | 
8 | 1.5 nM | 4.8 | Cc1cnc2c(NC(=O)c3cc4cn(C[C@@H]5CCOC5)nc4nc3OC(C)C)cnn2c1 (single isomer, unassigned) [Example 105] | 
9 | 0.4 nM | 0.8 | CC(C)Oc1nc2nn(C[C@H]3CCOC3)cc2cc1C(=O)Nc1cccc(C(F)F)n1 (single isomer, unassigned) [Example 106] | 
10 | 0.3 nM | 1 | CC(C)Oc1nc2nn(C[C@@H]3CCOC3)cc2cc1C(=O)Nc1cccc(C(F)F)n1 (single isomer, unassigned) [Example 107] | 
11 | 2.8 nM | 2.2 | CC(C)Oc1nc2nn(C[C@H]3CCOC3)cc2cc1C(=O)Nc1ccn(C(F)F)n1 (single isomer, unassigned) [Example 110] | 
12 | 2.7 nM | 2.1 | CC(C)Oc1nc2nn(C[C@@H]3CCOC3)cc2cc1C(=O)Nc1ccn(C(F)F)n1 (single isomer, unassigned) [Example 111] | 
13 | 3.4 nM | 8.3 | Cn1cccc(NC(=O)c2cc3cn(C[C@H]4CCOC4)nc3nc2OC2CCC2)c1=O (single isomer, unassigned) [Example 112] | 
14 | 2.1 nM | 5.3 | Cn1cccc(NC(=O)c2cc3cn(C[C@@H]4CCOC4)nc3nc2OC2CCC2)c1=O (single isomer, unassigned) [Example 113] | 
15 | 1 nM | 2.3 | Cn1cccc(NC(=O)c2cc3cn(C[C@@H]4CCOC4)nc3nc2OC2CCCC2)c1=O (single isomer, unassigned) [Example 115] | 
16 | 3.8 nM | 2.5 | O=C(Nc1ccn(C(F)F)n1)c1cc2cn(C[C@H]3CCOC3)nc2nc1OC1CCCC1 (single isomer, unassigned) [Example 116] | 
17 | 2 nM | 2.6 | O=C(Nc1ccn(C(F)F)n1)c1cc2cn(C[C@@H]3CCOC3)nc2nc1OC1CCCC1 (single isomer, unassigned) [Example 117] | 

The next lines start with the compound.

Row | SMILES | IC50 (IRAK4; [1]) | efflux ratio at 120 min, 1 μM (MDR1 (P-gp)) | IC50 (IRAK4; [2])
18 | COc1cccc(NC(=O)c2cc3cn(C[C@@H]4CCOC4)nc3cc2OC)n1 (single isomer, unassigned) [Example 22] | 9.2 nM | 0.6 | 
19 | COc1cccc(NC(=O)c2cc3cn(C[C@H]4CCOC4)nc3cc2OC)n1 (single isomer, unassigned) [Example 23] | 51.3 nM | 0.8 | 
20 | CC(C)Oc1cc2nn([C@H]3CCCOC3)cc2cc1C(=O)Nc1cccc(C(F)F)n1 (single isomer, unassigned) [Example 42] | 0.4 nM | 0.9 | 
21 | CC(C)Oc1cc2nn([C@@H]3CCCOC3)cc2cc1C(=O)Nc1cccc(C(F)F)n1 (single isomer, unassigned) [Example 43] | 0.2 nM | 0.6 | 
22 | CC(C)Oc1cc2nn([C@H]3CCOC3)cc2cc1C(=O)Nc1cccc(C(F)F)n1 (single isomer, unassigned) [Example 44] | 2.2 nM | 0.8 | 
23 | CC(C)Oc1cc2nn([C@@H]3CCOC3)cc2cc1C(=O)Nc1cccc(C(F)F)n1 (single isomer, unassigned) [Example 45] | 2.1 nM | 1 | 
24 | CC(C)Oc1cc2nn([C@@H]3CCOC(C)(C)C3)cc2cc1C(=O)Nc1cccc(C(F)F)n1 (single isomer, unassigned) [Example 46] | 0.3 nM | 1.2 | 
25 | CC(C)Oc1cc2nn([C@H]3CCOC(C)(C)C3)cc2cc1C(=O)Nc1cccc(C(F)F)n1 (single isomer, unassigned) [Example 47] | 0.2 nM | 1.5 | 
26 | Cn1cccc(NC(=O)c2cc3cn(C[C@H]4CCOC4)nc3nc2OC2CCCC2)c1=O (single isomer, unassigned) [Example 114] | 1.8 nM | 1.5 | 
27 | CC(C)Oc1nc2nn(C[C@H]3CCOC3)cc2cc1C(=O)Nc1cnn2cccnc12 (single isomer, unassigned) [Example 118] |  | 3.1 | 0.8 nM
28 | CC(C)Oc1nc2nn(C[C@@H]3CCOC3)cc2cc1C(=O)Nc1cnn2cccnc12 (single isomer, unassigned) [Example 119] |  | 3 | 1 nM
29 | CC(C)Oc1nc2nn([C@@H]3CCCOC3)cc2cc1C(=O)Nc1cnn2cccnc12 (single isomer, unassigned) [Example 120] | 0.5 nM | 0.9 | 
30 | CC(C)Oc1nc2nn([C@H]3CCCOC3)cc2cc1C(=O)Nc1cnn2cccnc12 (single isomer, unassigned) [Example 121] | 0.7 nM | 1.1 | 
31 | Cc1cnc2c(NC(=O)c3cc4cn(C[C@H]5CCOC5)nc4nc3OC3CCC3)cnn2c1 (single isomer, unassigned) [Example 122] | 0.4 nM | 4.2 | 
32 | Cc1cnc2c(NC(=O)c3cc4cn(C[C@@H]5CCOC5)nc4nc3OC3CCC3)cnn2c1 (single isomer, unassigned) [Example 123] | 0.5 nM | 5.9 | 
33 | Cn1ccc(NC(=O)c2cc3cn(C4CCCOC4)nc3nc2OC2CCC2)n1 (single isomer, unassigned) [Example 130] | 1.7 nM |  | 
34 | CC(C)Oc1cc2nn(C34COC(C)(C3)C4)cc2cc1C(=O)Nc1cccn(C)c1=O.O=C(O)C(F)(F)F [Example 55, 6-Isopropoxy-N-(1-methyl-2-oxo-1,2-dihydropyridin-3-yl)-2-(1-methyl-2-oxabicyclo[2.1.1]hexan-4-yl)-2H-indazole-5-carboxamide Trifluoroacetate] |  | 1.2 | 
35 | CC(C)Oc1cc2nn(C34CCC(C)(C3)OC4)cc2cc1C(=O)Nc1cnn2cc(F)cnc12 (stereo not shown) [Example 100, N-(6-fluoropyrazolo[1,5-a]pyrimidin-3-yl)-6-isopropoxy-2-(1-methyl-2-oxabicyclo[2.2.1]heptan-4-yl)-2H-indazole-5-carboxamide] | 1.2 nM |  | 
